This is an account of results in patent US11945862B2, “Compositions and methods for antibody production” (ImmunoGen, Inc., priority 2017, dated 2024).

Data set [1] concerns Humanized anti-folate receptor 1 (FOLR1) IgG1. Kind of data set: Antibody disulfide reduction by damaged CHO cell supernatant (freeze-thaw), thiol per antibody by Ellman's assay. The format is biochemical. To be noted: for thiol/antibody ratio: about 2.5 hours, control 5.5; for thiol per antibody: 2.2 hours. The procedure: (§1) For all of the examples described below, cell damage was simulated by multiple freeze-thaw cycles of cells, by addition of RIPA buffer (50 mM Tris-HCl, pH 7.4, 1% NP-40, 0.5% sodium deoxycholate, 0.1% sodium dodecylsulfate), or by using microfluidizer. This damaged cell supernatant or lysate was then incubated with a buffered solution containing antibody with or without the anti-reduction agent being tested, following which the extent of the antibody-disulfide reduction was measured using Ellman's assay for thiol (P. W. Riddles, R. L. Blakeley, and B. Zerner, Methods Enzymol., 91, 49-60, 1983) or by non-reducing SDS protein LabChip analysis. The total thiol level present in the mixture of damaged cell supernatant/lysate was measured initially.
(§2) A simulated, damaged CHO cell suspension was prepared using 300 million CHO cells per ml phosphate buffered saline (PBS), which was subjected to three freeze-thaw cycles under vacuum, followed by pelleting of cell debris by centrifugation, and storage of the supernatant at −80° C.
The concentration of thiol in the suspension of damaged CHO cells was measured as 4 mM using DTNB ((5,5′-dithiobis(2-nitrobenzoic acid); Ellman's reagent). Humanized anti-folate receptor 1 (FOLR1) IgG1 (1 mg) was immobilized on 0.05 ml of Protein A bead (RepliGen) and then treated with pre-mixed 0.5 ml PBS and 0.1 ml damaged CHO cell supernatant. The concentration of thiol in this mixture was 0.67 mM.
The sample was rotated for about 2.2 hours at ambient temperature, following which the supernatant was removed and the beads were washed with PBS four times (1.5 ml each). The thiol content of the immobilized antibody on the beads was then analyzed by the addition of 0.6 ml of PBS containing 0.5 mM DTNB, rotation for about 10 minutes, centrifugation, and measurement of the absorbance of the supernatant at 412 nm.
Methylene blue was then tested at different concentrations to determine whether it could protect against disulfide bond reduction during the incubation of antibody with damaged CHO cell supernatant. FIG. 1 is a graph showing the results of immobilized 1 mg humanized IgG1 with pre-mixed 0.5 ml PBS and 0.1 ml damaged CHO cell supernatant in the presence of methylene blue, rotation for 2.2 hours at ambient temperature, and a similar thiol analysis of immobilized antibody as above. Unexpectedly, very low concentrations of methylene blue (0.025 and 0.05 mM) protected against the reduction of antibody disulfide bonds.
In a similar experiment, a sample containing 1 mg immobilized antibody was incubated with a mixture of damaged CHO cell supernatant and 0.05 mM methylene blue for 2.2 hours, followed by washing of beads as above, after which the antibody was eluted from Protein A bead using 100 mM acetic acid containing 150 mM NaCl, neutralized to pH 7 by addition of 1.25 M […] solution. Using an aliquot of the neutralized eluted antibody sample, the thiol per antibody was measured as 0.002 thiol per antibody using DTNB, thus indicating the protection against antibody disulfide reduction by methylene blue. […]
(DTNB colorimetry detects thiols as they appear.)

Data set [2] deals with CHO cells. Kind of data set: Viability of CHO cells after 1 day treatment. The following applies: 0.75 mM, control 98.9%.
In data set [3] the test system is humanized N901 antibody. Kind of data set: Antibody disulfide reduction by CHO cell lysate (RIPA buffer), thiol/antibody by Ellman's assay. The format is biochemical. The following applies: for thiol/antibody ratio: 3 hours, lysate thiol 2.1 mM, control 5.74. The method, then: as §1
The effect of 1,2-naphthoquinone-4-sulfonic acid (NQS) on antibody-disulfide reduction was studied by incubating 1,2-naphthoquinone-4-sulfonic acid at several concentrations with antibody and damaged CHO lysate. The damaged CHO cell lysate was generated by the addition of 0.5 ml RIPA buffer (50 mM Tris-HCl, pH 7.4, 1% NP-40, 0.5% sodium deoxycholate, 0.1% sodium dodecylsulfate) to 100 million CHO cells. The thiol concentration in CHO cell lysate was measured by Ellman's assay as 2.1 mM.
Each sample contained pre-mixed 0.5 ml RIPA buffer (50 mM Tris-HCl, pH 7.4, 1% NP-40, 0.5% sodium deoxycholate, 0.1% sodium dodecylsulfate) with 1 mg humanized N901 antibody, with or without 1,2-naphthoquinone-4-sulfonic acid (25 micromolar, or 50 micromolar, or 100 micromolar), which was added to a cell pellet of 100 million CHO cells, and the resuspended cells were incubated at ambient temperature for 30 minutes, following which the cell debris were pelleted by centrifugation (16,000 g, 5 min). The supernatant from each sample was added to 50 microliter immobilized-Protein A beads (RepliGen) and rotated at ambient temperature for 3 hours, after which the supernatant was removed and the beads washed with PBS.
The thiol content of the immobilized antibody was determined by the addition of 0.6 ml of PBS containing 0.5 mM DTNB (Ellman's reagent) to the beads, rotation for about 10 minutes, centrifugation, and absorbance measurement of supernatant at 412 nm.
The effect of anthraquinone-2-sulfonic acid (AQS) on antibody-disulfide reduction was studied during co-incubation of anthraquinone-2-sulfonic acid with antibody and damaged CHO lysate. Each sample contained pre-mixed 1 ml RIPA buffer (50 mM Tris-HCl, pH 7.4, 1% NP-40, 0.5% sodium deoxycholate, 0.1% sodium dodecylsulfate) with 1 mg humanized N901 antibody, with or without 0.2 mM anthraquinone-2-sulfonic acid (AQS), which was added to a cell pellet of 100 million CHO cells, and the resuspended cells were incubated at ambient temperature for 30 minutes, following which the cell debris were pelleted by centrifugation (16,000 g, 5 min). The thiol concentration in CHO cell lysate was 1 mM (Ellman's assay).
The supernatant from each sample was added to 50 microliter immobilized-Protein A beads (RepliGen) and rotated at ambient temperature for 3 hours, after which the supernatant was removed and the beads washed with PBS. The thiol content of the immobilized antibody was determined by the addition of 0.6 ml of PBS containing 0.5 mM DTNB (Ellman's reagent) to the beads, rotation for about 10 minutes, centrifugation, and absorbance measurement of supernatant at 412 nm.
In another experiment, 1 mg huN901 antibody was incubated with CHO lysate, with or without 0.4 mM anthraquinone-2-sulfonic acid for 4 hours. The mixture was then analyzed for thiol/antibody as above.
The thiol concentration in CHO cell lysate was 1 mM (Ellman's assay).
The supernatant from each sample was added to 50 microliter immobilized-Protein A beads (RepliGen) and rotated at ambient temperature for 3 hours, after which the supernatant was removed and the beads washed with PBS. […]

The test system of data set [4] is Humanized FOLR1 IgG1 antibody. Kind of data set: Antibody disulfide reduction by CHO cell lysate (RIPA buffer), thiol per antibody by Ellman's assay. The following applies: 5 mM agent, 100 mM phosphate buffer pH 7, 2 hours. The format is biochemical.
Experimental: Lysates of CHO cells (˜60 million cells lysed in 0.6 ml RIPA buffer and clarified by centrifugation) were added to each of these mixtures. The pH values of all samples were adjusted to 7. […] The samples were incubated with 200 microliter immobilized-Protein A beads (RepliGen) and rotated at ambient temperature for 3 hours, after which the supernatant was removed and the beads washed with PBS. The thiol content of the immobilized antibody was determined by the addition of 0.2 ml of PBS containing 0.5 mM DTNB (Ellman's reagent) to the beads, rotation for about 10 minutes, centrifugation, and absorbance measurement of the supernatant at 412 nm.
The pH values of all samples were adjusted to 7. The samples were incubated with 200 microliter immobilized-Protein A beads (RepliGen) and rotated at ambient temperature for 3 hours, after which the supernatant was removed and the beads washed with PBS. The thiol content of the immobilized antibody was determined by the addition of 0.2 ml of PBS containing 0.5 mM DTNB (Ellman's reagent) to the beads, rotation for about 10 minutes, centrifugation, and absorbance measurement of the supernatant at 412 nm.
To test the effect of L-cystine bis(t-butyl ester) (CDBE) on protecting antibody disulfide bonds from reduction by CHO lysate, humanized FOLR1 IgG1 antibody (2 mg) was incubated with CHO lysate in RIPA buffer (0.6 ml lysate of 60 million CHO cells in 0.6 ml RIPA buffer, clarified by centrifugation) without or with 0.5 or 1 mM CDBE. The samples were rotated at ambient temperature with 200 microliter immobilized-Protein A beads (RepliGen) for 2 hours, after which the supernatant was removed and the beads washed with PBS. The thiol content of the immobilized antibody was determined by the addition of 0.2 ml of PBS containing 0.5 mM DTNB (Ellman's reagent) to the beads, centrifugation, and absorbance measurement of the supernatant at 412 nm.
The samples were rotated at ambient temperature with 200 microliter immobilized-Protein A beads (RepliGen) for 2 hours, after which the supernatant was removed and the beads washed with PBS. The thiol content of the immobilized antibody was determined by the addition of 0.2 ml of PBS containing 0.5 mM DTNB (Ellman's reagent) to the beads, centrifugation, and absorbance measurement of the supernatant at 412 nm.
Data set [5] deals with Humanized N901 (Anti-CD56 IgG1). Kind of data set: Antibody disulfide reduction by damaged CHO cell supernatant (freeze-thaw), thiol per antibody by Ellman's assay. The format is biochemical. The following applies: for thiol per antibody: about 1.5 hours, control 6.4; for thiol per antibody / protection toward antibody-disulfide reduction: total thiol 0.8 mM; for protection toward antibody-disulfide reduction: 0.2 and 0.1 mM agent; for thiol/antibody ratio: about 2.5 hours, total thiol 0.4 mM, control 1.99. The method, then:
as §1, §2
Humanized N901 (Anti-CD56 IgG1; 1 mg) was immobilized on 0.05 ml of Protein A bead (RepliGen) and then treated with pre-mixed 0.4 ml PBS and 0.1 ml damaged CHO cell supernatant (described in Example 1) with or without the addition of coenzyme Q analogs. The concentration of thiol in these mixtures was 0.8 mM.
The samples were rotated for about 1.5 hours at ambient temperature, following which the supernatant was removed and the beads washed with PBS three times. The thiol content of the immobilized antibody on the beads was then analyzed by the addition of 0.6 ml of mixture of PBS and 0.5 mM DTNB, rotation for about 10 minutes, centrifugation, and measurement of the absorbance of the supernatant at 412 nm. The number of thiol residues per antibody molecule after incubation with damaged CHO cell supernatant (without any coenzyme Q analog) was measured as 6.4 thiol/antibody.
Humanized N901 IgG1 (1 mg) was immobilized on 0.05 ml of Protein A bead (RepliGen) and treated with pre-mixed 0.45 ml PBS and 0.05 ml damaged CHO cell supernatant with or without 0.1 mM and 0.2 mM disulfiram (also named as tetraethylthiuram disulfide; added using a stock solution of disulfiram in DMSO). The concentration of total thiol (derived from damaged cells) in this mixture was 0.4 mM.
The samples were rotated for about 2.5 hours at ambient temperature, then centrifuged to pellet beads, following which the supernatants were removed and the beads washed with PBS four times. The thiol content of the immobilized antibody on the beads was then analyzed by the addition of 0.6 ml PBS containing 0.5 mM DTNB to the beads, rotation for about 30 minutes, centrifugation, and measurement of the absorbance of the supernatant at 412 nm.

Data set [6] can be described thus: Redox potential of antibody solution with media additive over a range of DTT concentrations. The format is physicochemical. The following applies: 1 mM additive, DTT 0.34 μM to 170 μM, 37° C., 1 h.
In data set [7] the test system is M9346A antibody. The format is biochemical. The following applies: 1 mM additive, conditions where control without additive was 100% fragmented. The method, then: Antibody reduction was induced in a biological assay by adding cell lysate to purified monoclonal antibody. […]. Increasing amounts of CHO cell lysate were added to mimic different percentages of cell lysis, ranging from […]. Fresh NADPH was added to a concentration of 400 μM. The mixtures were incubated in a water bath at 37° C. for 1 h. Free thiols were alkylated by addition of 10% (v/v) of 50 mM N-ethyl-maleimide (NEM) solution. Samples were analyzed by non-reduced sodium dodecyl sulfate denaturing capillary electrophoresis (NR-CE-SDS).
To test the capacity for protection further, the stringency of the assay was increased. […].

For the molecule `O=C(O)CCCCC1CCSS1` (racemic) [lipoic acid, 1,2-dithiolane-3-pentanoic acid], the thiol/antibody ratio in data set [1] (0.5 mM agent, total thiol 0.67 mM) is 1.88; in data set [1] (2 mM agent, total thiol 0.67 mM), 1.08. The “viability of CHO cells” value in data set [2] worked out at 98.1%.
In data set [3] (0.75 mM agent, 4° C. overnight, control 2.29), `CCOC(=O)[C@@H](N)CSSC[C@H](N)C(=O)OCC` [CDEE, L-cystine diethyl ester] yielded a thiol/antibody of 1.02 thiol/antibody.
As for `CC(=O)N[C@@H](CSSC[C@H](NC(C)=O)C(=O)O)C(=O)O` [Di-N-acetyl L-cystine], the “decrease in disulfide reduction compared to the control” value in data set [4] is “about 64%”. Besides, in data set [4] (control 1.16), the thiol per antibody result is given as “about 0.42 thiol per antibody”.
Consider `O=C1C=C(S(=O)(=O)O)c2ccccc2C1=O` [NQS, 1,2-naphthoquinone-4-sulfonic acid], for which the values for the thiol/antibody ratio in data set [3] (0.025 mM agent), in data set [3] (0.05 mM agent) and in data set [3] (0.1 mM agent) were 3.4, 2.2 and 1.25, respectively.
Consider `COC1=C(OC)C(=O)C(C)=CC1=O` [coenzyme Q0, 2,3-dimethoxy-5-methyl-p-benzoquinone], for which the thiol per antibody in data set [5] (0.1 mM agent) is recorded as 0.63 thiol per antibody; in data set [5] (0.2 mM agent) it was 0.34 thiol per antibody.
As for `COC1=C(OC)C(=O)C(C/C=C(\C)CCC=C(C)C)=C(C)C1=O` [coenzyme Q2, 2,3-dimethoxy-5-methyl-6-geranyl-p-benzoquinone], the “protection toward antibody-disulfide reduction” value in data set [5] is recorded as “decreased antibody disulfide-reduction”.
As to `COC1=C(OC)C(=O)C(C/C=C(\C)CC/C=C(\C)CC/C=C(\C)CC/C=C(\C)CC/C=C(\C)CC/C=C(\C)CC/C=C(\C)CC/C=C(\C)CC/C=C(\C)CCC=C(C)C)=C(C)C1=O` [coenzyme Q10, reference compound], in data set [5], the “protection toward antibody-disulfide reduction” value is on record as “did not show significant protection”.
Take `N[C@@H](CSSC[C@H](N)C(=O)O)C(=O)O` [cystine]: the “modulation of redox potential” value in data set [6] is “step-wise modulation of redox potential”.
As to `CCN(CC)C(=S)SSC(=S)N(CC)CC` [disulfiram, tetraethylthiuram disulfide, reference compound], the thiol/antibody ratio in data set [5] (0.1 mM agent) stood at 0.14; in data set [5] (0.2 mM agent), 0.03.
As for `CN(C)c1ccc2nc3ccc(N(C)C)cc3[s+]c2c1` [methylene blue, Methylene blue], the thiol per antibody in data set [1] (0.025 mM agent, total thiol 0.67 mM, control 4.2) amounted to 0.38 thiol per antibody; in data set [1] (0.05 mM agent, antibody eluted from Protein A bead and neutralized), 0.002 thiol per antibody; in data set [1] (0.05 mM agent, total thiol 0.67 mM, control 4.2), 0.33 thiol per antibody.
On to `O=S(=O)([O-])[O-].[Zn+2]` [zinc], for which, in data set [7], the “protection at increased assay stringency” value was “protective of disulfide reduction”.
For the molecule oxidized glutathione [GSSG], the thiol/antibody in data set [3] (2 mM GSSG alone, 2.5 hours, lysate thiol 1 mM, control 5.63) is reported as 0.98 thiol/antibody.
